This passage reports % of control, % of inhibition and % binding results from ChEMBL document CHEMBL5465560, “Selectivity Literature for EUbOPEN Chemogenomic Library” (2024).

Each structure is given as a SMILES string.

The target in assay [1] is Calcium/calmodulin-dependent protein kinase type II subunit delta (Homo sapiens) (UniProt Q13557). In words: Selectivity interaction (Kinase panel (Z-LYTE Assay)) EUB0001632a CAMK2D. The note with it: at 10 µM.
The target of assay [2] is Proto-oncogene tyrosine-protein kinase ROS (Homo sapiens) (UniProt P08922). In words: Selectivity interaction (KinomeScan (DiscoverX)) EUB0000595a ROS1. The conditions noted are these: at 10 µM.
Assay [3] deals with T1, Peripheral plasma membrane protein CASK (Homo sapiens) (UniProt O14936).
T1 sequence (whole entry): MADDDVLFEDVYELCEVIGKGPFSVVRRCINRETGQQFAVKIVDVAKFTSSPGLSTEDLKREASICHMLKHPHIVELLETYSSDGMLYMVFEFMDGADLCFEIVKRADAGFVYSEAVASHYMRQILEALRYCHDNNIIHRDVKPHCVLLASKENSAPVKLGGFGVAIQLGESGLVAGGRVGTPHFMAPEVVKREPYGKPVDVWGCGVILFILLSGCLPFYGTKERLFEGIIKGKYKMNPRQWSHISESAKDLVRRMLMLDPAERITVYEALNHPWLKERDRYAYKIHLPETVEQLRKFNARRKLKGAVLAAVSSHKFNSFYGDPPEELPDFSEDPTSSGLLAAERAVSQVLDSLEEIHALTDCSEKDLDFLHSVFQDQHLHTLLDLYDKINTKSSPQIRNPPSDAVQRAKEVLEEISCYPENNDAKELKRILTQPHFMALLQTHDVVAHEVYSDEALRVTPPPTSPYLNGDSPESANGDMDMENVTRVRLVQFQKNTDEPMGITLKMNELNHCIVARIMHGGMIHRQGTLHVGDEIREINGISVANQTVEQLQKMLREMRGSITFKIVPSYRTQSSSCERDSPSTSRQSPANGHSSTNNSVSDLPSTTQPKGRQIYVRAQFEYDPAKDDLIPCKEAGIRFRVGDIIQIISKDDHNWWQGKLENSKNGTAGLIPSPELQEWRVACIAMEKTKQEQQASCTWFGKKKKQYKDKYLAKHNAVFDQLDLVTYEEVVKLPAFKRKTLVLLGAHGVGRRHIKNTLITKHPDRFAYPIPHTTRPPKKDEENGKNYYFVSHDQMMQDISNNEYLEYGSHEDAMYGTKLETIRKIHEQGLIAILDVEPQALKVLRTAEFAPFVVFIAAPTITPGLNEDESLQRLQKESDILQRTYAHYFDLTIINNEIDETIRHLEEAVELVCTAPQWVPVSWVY
In words: Selectivity interaction (KinomeScan (DiscoverX)) EUB0001619a CASK. The conditions noted are these: at 1 µM.

Assay [4] addresses Tyrosine-protein kinase JAK1 (Homo sapiens, UniProt P23458). In words: Selectivity interaction (KinomeScan (DiscoverX)) EUB0000607a JAK1. The note with it: at 10 µM.
The target of assay [5] is Serine/threonine-protein kinase SIK1 (Homo sapiens) (UniProt P57059). The note with it: at 10 µM.
Serine/threonine-protein kinase SIK1 (Homo sapiens), sequence (P57059 whole entry): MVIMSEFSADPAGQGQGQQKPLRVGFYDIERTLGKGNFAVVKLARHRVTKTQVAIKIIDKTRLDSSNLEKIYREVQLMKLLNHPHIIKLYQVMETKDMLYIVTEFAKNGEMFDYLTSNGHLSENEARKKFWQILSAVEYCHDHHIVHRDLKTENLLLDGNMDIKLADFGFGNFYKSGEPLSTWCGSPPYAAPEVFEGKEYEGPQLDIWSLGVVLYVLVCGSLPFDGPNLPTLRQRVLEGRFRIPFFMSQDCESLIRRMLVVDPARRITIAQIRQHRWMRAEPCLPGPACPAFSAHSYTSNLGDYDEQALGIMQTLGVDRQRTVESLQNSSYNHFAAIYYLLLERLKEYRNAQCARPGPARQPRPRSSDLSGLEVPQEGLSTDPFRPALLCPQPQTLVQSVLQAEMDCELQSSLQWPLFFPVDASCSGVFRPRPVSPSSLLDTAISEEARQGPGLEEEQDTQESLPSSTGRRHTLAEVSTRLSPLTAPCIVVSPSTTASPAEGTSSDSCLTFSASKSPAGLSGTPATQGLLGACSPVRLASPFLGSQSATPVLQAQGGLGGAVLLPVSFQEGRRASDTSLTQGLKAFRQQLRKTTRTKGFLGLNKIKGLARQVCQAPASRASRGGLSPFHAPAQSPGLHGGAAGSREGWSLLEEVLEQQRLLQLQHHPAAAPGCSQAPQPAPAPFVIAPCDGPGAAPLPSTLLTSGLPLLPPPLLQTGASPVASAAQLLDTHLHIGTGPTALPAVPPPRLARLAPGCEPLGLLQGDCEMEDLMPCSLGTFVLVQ
Assay [6] has as its target Dual specificity protein kinase CLK4 (Homo sapiens, UniProt Q9HAZ1). In words: Selectivity interaction (Kinase panel (Invitrogen)) EUB0000639a CLK4. The conditions noted are these: at 200 nM.
Assay [7] addresses Ribosomal protein S6 kinase alpha-4 (Homo sapiens) (UniProt O75676). In words: Selectivity interaction (Ambit KINOMEscan and KiNATiv profiling in Jurkat cells) EUB0000090b RPS6KA4. Format: cell-based. The conditions noted are these: at 1 µM.
Assay [8] concerns the target T2, Receptor-interacting serine/threonine-protein kinase 4 (Homo sapiens) (UniProt P57078).
T2 sequence (whole entry): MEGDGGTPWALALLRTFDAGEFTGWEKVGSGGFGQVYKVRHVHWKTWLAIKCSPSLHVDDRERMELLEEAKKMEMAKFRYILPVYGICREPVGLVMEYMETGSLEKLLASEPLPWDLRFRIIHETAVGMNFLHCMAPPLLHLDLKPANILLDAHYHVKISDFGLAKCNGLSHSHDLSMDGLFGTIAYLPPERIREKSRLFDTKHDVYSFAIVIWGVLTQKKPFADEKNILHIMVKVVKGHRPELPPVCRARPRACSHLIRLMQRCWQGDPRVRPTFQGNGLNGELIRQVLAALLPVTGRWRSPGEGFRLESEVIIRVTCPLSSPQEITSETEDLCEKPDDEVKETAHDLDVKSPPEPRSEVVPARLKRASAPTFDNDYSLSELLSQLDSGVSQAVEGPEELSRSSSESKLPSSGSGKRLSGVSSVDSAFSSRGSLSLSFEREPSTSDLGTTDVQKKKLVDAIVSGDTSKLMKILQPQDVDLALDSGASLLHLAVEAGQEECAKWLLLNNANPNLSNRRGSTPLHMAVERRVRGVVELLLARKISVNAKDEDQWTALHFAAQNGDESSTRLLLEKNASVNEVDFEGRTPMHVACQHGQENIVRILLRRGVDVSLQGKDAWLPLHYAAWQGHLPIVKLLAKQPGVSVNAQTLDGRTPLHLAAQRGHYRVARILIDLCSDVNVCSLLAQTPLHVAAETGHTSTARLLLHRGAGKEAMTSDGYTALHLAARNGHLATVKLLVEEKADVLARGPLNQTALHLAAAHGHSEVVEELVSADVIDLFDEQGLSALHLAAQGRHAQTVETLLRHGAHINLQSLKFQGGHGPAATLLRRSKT
In words: Selectivity interaction (KinomeScan (DiscoverX)) EUB0001049a RIPK4. The note with it: at 1 µM.

Assay [9] addresses Tyrosine-protein kinase Lyn (Homo sapiens, UniProt P07948). In words: Selectivity interaction (KinomeScan (DiscoverX)) EUB0000092b LYN. The note with it: at 10 µM.
Assay [10] has as its target D(2) dopamine receptor (Homo sapiens, UniProt P14416). In words: Selectivity interaction (Panel of non-epigenetic targets (kinases, GPCRs, ion channels, and transporters, Eurofins) ) EUB0000271b DRD2. The note with it: at 1 µM.
Assay [11] concerns the target Receptor tyrosine-protein kinase erbB-2 (Homo sapiens, UniProt P04626). In words: Selectivity interaction (KinomeScan (DiscoverX)) EUB0001079a ERBB2. The conditions noted are these: at 1 µM.
The target in assay [12] is Tyrosine-protein kinase Fer (Homo sapiens) (UniProt P16591). In words: Selectivity interaction (KinomeScan (DiscoverX)) EUB0000229b FER. The conditions noted are these: at 10 µM.
Tyrosine-protein kinase Fer (Homo sapiens), sequence (P16591 whole entry, looked up): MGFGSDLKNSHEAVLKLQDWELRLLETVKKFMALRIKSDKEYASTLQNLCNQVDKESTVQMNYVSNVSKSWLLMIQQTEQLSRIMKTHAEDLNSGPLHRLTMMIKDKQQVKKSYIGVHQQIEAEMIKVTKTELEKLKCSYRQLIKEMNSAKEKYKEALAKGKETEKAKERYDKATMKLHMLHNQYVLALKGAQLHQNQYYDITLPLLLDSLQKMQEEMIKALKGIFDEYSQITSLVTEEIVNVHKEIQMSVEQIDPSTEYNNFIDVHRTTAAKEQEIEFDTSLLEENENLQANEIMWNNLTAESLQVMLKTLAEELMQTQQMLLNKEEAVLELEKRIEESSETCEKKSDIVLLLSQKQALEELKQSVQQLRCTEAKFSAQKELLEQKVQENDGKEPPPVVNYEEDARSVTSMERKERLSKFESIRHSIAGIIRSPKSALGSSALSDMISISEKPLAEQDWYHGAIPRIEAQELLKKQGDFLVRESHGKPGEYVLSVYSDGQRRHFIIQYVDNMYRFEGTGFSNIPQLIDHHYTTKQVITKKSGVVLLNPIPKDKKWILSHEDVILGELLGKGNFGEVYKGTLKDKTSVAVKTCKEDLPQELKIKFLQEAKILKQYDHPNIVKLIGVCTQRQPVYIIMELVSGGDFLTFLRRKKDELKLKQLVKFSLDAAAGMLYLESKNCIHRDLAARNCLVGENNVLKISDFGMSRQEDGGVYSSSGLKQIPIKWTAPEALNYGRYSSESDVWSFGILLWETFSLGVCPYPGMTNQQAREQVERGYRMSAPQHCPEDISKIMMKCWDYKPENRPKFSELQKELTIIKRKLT
Assay [13] deals with G protein-coupled receptor kinase 4 (Homo sapiens) (UniProt P32298). In words: Selectivity interaction (KinomeScan (DiscoverX)) EUB0000229b GRK4. The note with it: at 10 µM.

Calcium/calmodulin-dependent protein kinase type II subunit delta (Homo sapiens), sequence (Q13557 whole entry): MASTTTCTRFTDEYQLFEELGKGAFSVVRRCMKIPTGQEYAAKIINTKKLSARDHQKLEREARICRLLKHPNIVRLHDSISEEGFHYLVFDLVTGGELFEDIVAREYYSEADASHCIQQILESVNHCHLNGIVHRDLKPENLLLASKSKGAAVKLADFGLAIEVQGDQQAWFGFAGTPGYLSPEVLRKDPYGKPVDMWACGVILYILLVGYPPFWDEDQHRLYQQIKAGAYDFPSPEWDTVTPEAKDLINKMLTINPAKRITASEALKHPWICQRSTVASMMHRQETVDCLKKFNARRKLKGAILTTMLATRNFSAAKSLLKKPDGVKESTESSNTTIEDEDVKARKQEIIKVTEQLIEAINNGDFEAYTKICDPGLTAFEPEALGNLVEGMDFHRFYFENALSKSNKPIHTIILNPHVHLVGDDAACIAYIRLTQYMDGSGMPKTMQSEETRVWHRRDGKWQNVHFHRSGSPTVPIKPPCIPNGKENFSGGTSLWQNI
Tyrosine-protein kinase Lyn, sequence (P07948 2-512 limits assumed): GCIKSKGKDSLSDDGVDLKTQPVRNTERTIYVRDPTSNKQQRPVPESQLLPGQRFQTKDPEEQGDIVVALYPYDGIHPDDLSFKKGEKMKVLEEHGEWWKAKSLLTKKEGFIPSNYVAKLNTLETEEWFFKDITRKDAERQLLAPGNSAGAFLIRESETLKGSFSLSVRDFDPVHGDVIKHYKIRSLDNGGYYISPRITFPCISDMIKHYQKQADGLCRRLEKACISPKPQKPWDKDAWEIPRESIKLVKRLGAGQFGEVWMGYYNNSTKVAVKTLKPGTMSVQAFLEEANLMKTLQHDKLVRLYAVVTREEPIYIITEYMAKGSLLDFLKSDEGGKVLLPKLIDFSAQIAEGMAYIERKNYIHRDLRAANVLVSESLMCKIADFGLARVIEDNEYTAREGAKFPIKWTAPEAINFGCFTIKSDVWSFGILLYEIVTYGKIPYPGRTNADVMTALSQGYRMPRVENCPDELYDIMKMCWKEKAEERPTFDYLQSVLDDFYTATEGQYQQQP
Ribosomal protein S6 kinase alpha-4 (Homo sapiens), sequence (O75676 whole entry, looked up): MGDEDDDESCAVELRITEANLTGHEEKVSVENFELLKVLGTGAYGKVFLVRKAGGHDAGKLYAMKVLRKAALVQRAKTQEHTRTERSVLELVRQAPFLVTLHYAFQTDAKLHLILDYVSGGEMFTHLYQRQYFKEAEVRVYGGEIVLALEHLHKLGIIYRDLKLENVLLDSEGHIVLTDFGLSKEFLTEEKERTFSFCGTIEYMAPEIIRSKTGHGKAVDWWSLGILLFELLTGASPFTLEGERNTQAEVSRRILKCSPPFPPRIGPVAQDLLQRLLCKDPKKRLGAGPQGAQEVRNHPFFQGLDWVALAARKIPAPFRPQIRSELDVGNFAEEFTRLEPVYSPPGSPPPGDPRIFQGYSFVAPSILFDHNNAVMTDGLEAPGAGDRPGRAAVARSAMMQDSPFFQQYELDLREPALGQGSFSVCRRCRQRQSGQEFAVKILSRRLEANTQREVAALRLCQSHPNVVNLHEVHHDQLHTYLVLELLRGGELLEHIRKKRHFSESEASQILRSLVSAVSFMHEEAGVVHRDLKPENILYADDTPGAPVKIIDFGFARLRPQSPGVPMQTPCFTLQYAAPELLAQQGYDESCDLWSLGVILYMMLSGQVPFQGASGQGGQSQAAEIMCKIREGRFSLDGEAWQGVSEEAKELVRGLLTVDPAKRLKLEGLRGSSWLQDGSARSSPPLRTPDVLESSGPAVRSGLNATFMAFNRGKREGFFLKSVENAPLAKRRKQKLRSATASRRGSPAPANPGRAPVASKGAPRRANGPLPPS
Tyrosine-protein kinase JAK1, sequence (P23458 whole entry): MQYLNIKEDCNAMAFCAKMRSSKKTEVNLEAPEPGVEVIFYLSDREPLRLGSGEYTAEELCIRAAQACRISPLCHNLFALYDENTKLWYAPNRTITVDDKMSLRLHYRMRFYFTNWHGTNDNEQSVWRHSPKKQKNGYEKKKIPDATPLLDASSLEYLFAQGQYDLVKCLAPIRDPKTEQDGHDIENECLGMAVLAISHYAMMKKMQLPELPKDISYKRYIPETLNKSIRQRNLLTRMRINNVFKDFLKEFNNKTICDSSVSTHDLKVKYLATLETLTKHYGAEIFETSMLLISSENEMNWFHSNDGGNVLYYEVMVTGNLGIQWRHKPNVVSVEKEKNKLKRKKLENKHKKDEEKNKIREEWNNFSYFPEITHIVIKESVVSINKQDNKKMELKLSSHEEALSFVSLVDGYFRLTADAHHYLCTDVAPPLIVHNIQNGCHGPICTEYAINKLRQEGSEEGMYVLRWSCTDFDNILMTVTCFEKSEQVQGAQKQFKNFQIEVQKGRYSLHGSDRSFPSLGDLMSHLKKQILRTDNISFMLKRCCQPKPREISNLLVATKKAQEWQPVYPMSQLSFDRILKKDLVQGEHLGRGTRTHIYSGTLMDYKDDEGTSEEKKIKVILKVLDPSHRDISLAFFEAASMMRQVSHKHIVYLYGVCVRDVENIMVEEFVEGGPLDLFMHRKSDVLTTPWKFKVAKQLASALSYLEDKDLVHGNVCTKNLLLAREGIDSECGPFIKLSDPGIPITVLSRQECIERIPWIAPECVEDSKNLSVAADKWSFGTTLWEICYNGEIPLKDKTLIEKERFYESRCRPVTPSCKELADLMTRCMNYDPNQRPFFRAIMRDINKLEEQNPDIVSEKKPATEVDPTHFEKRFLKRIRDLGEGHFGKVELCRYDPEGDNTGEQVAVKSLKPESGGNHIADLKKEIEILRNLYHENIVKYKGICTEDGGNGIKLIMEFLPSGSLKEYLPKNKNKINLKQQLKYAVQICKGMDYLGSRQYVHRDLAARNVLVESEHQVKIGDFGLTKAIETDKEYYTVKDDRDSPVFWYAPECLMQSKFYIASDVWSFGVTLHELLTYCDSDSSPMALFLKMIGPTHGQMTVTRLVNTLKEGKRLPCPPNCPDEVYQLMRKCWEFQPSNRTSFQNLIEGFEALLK
Dual specificity protein kinase CLK4, sequence (Q9HAZ1 whole entry, looked up): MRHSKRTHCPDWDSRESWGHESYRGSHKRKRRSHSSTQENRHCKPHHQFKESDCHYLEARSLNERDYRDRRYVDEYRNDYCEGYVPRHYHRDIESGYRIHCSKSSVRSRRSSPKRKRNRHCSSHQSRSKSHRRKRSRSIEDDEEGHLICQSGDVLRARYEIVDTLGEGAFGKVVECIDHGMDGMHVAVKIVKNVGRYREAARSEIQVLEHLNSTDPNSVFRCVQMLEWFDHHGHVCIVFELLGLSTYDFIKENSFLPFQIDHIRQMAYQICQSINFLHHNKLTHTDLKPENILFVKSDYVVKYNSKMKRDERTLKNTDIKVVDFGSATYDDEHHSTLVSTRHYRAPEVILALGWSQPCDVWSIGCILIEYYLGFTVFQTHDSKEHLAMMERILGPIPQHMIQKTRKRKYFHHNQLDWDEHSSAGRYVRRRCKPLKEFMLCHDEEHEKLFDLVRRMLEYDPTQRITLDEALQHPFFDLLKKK

Consider `Cn1cc(-n2cnc3c(NCc4nc5cc(Cl)c(Cl)cc5[nH]4)nc(N4CCOCC4)nc32)cn1`, for which, in assay [1], the % of control was -1.23%. In the case of `COCC(=O)NC/C=C/c1ccc2ncnc(Nc3ccc(Oc4ccc(C)nc4)c(C)c3)c2c1` [CP-724714], the % of control in [2] is 100%. Take `N#Cc1cccc(-c2c[nH]c3ncnc(N4CCOCC4)c23)c1`: the % of control in assay [3] is 66%. For `CNC(=O)Nc1ccc(-c2nc(N3CC4CCC(C3)O4)c3cnn(C4CCC5(CC4)OCCO5)c3n2)cc1`, the % of control in assay [4] worked out at 82%.

`Cc1cc([C@@H](C)Nc2ccccc2C(=O)O)c2nc(N3CCOCC3)cc(=O)n2c1` [AZD-6482]: the % of control in [5] was found to be 100%.

In the case of `CC[C@@H]1[C@H](F)C(=O)N[C@@H]1COc1nccc2cc(C(N)=O)c(OC)cc12` [ZIMLOVISERTIB], the % of inhibition in assay [6] was determined as 75.7%. Consider `CN(C)C/C=C/C(=O)Nc1ccc(C(=O)N2CCCC(Nc3ncc(Cl)c(-c4c[nH]c5ccccc45)n3)C2)cc1` (stereo not drawn), for which, in [7], the % of control was found to be 100%. As for `COc1cc(Nc2nc(C)cc(-c3cnn4nc(OC)ccc34)n2)cc(C(F)(F)F)c1`, the % of control in [8] was determined as 89%. For `CCC(=O)N1CCN(c2ccc(-n3c(=O)ccc4cnc5ccc(-c6cnc7ccccc7c6)cc5c43)cc2C(F)(F)F)CC1`, the % of control in [9] was 79%.

As for `Cc1cc(C)cc([C@@H]2c3cc(C)ccc3NC(=O)CN2C(=O)c2ccc(Br)s2)c1`, in assay [10], the % of inhibition was -1%. As for `Nc1cnc(N2CCc3cc(S(=O)(=O)Nc4c(F)cc(Cl)cc4F)cc(N4CCCC4=O)c32)nc1` [TP-020n], the % of control in assay [11] turned out to be 100%. On to `COc1cc(N(C)c2ccnc3ccc(C(F)(F)F)cc23)cc(OC)c1OC`, for which the % binding in [12] is 95%; in assay [13] it was 90%.
